This passage reports IC50, melting point and inhibition results from patent publication US20220289698A1, “INHIBITORS OF HUMAN ATGL” (Karl-Franzens-Universität Graz, priority 2019, published 2022).

One series concerns the target T1, human ATGL (Homo sapiens, UniProt Q96AD5).
T1 construct: made in house; host or cells: Expi cells (lysate, not purified)
T1 sequence (Q96AD5 1-504): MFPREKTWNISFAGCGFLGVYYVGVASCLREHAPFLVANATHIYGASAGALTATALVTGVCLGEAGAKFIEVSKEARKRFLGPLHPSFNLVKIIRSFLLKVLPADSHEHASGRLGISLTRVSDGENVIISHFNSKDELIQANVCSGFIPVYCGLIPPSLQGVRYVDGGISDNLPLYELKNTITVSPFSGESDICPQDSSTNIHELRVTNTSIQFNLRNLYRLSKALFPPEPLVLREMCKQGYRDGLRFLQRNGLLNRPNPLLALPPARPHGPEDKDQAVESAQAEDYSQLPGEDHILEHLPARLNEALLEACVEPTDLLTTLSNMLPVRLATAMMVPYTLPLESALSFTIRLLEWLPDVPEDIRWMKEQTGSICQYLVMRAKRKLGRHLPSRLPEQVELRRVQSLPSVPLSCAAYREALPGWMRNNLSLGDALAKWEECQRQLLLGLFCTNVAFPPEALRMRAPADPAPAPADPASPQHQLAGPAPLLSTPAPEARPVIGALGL
The series can be described thus: TG hydrolase activity, Expi cell lysates expressing human ATGL + CGI-58, radiolabelled triolein. Type of series: biochemical. The following applies: Example 237; read-out: Inhibition of human ATGL − IC50. Here is the method: (§1) Triglyceride (TG) hydrolase activity was measured as previously described (Schweiger M et al., Methods in Enzymology, 2014, 538:171-93). In brief, TG hydrolase activity was determined by adding recombinant purified CGI-58 to Expi cell lysates expressing human ATGL. For determination of cross-species reactivity Expi lysates expressing ATGL from different model organisms (e.g. mouse, rat, rhesus monkey, goat, etc.) were used. Samples were incubated with DMSO (carrier) or increasing concentrations of ATGL inhibitors dissolved in DMSO. TG substrate was prepared by emulsifying 330 μM radiolabelled triolein (40,000 c.p.m./nmol) and 45 μM phosphatidylcholine/phosphatidylinositol (3:1) in 100 mM potassium phosphate buffer (pH 7.0) by sonication and adjusting to 5% essentially FA-free BSA. TG substrate was added to the reaction mixture and incubated for 1 h at 37° C. in the water bath. The reaction was terminated by adding methanol/chloroform/heptane (10:9:7) and 0.1 M potassium carbonate with 0.1 M boric acid (pH 10.5). After centrifugation at 800 g for 15 min the radioactivity in the upper phase was determined by liquid scintillation counting and the rate of FA hydrolysis was calculated. IC50 values were determined as inhibitor concentration capable of inhibiting TG hydrolase activity by 50% as compared to DMSO control. Samples were measured as duplicates. The determination of IC50 values for human ATGL is illustrated in FIG. 1.
As to `C=CCOC(=O)c1csc(-c2ccc(OCC)cc2)n1` [Example 147, Allyl 2-(4-ethoxyphenyl)thiazole-4-carboxylate], the IC50 was 3 µM.
As for `CCOc1ccc(-c2nc(C(=O)OC(C)(C)C)cs2)cc1` [Example 150, tert-Butyl 2-(4-ethoxyphenyl)thiazole-4-carboxylate], the half-inhibitory concentration (IC50) stood at 5 µM.
On the same count and under the same terms, under `CCOc1ccc(-c2nc(C(=O)OC3CC3)cs2)cc1` [Example 151, Cyclopropyl 2-(4-ethoxyphenyl)thiazole-4-carboxylate] stands 2.5 µM.
On the same count and under the same terms, then `CCOc1ccc(-c2nc(C(=O)OCc3ccco3)cs2)cc1` [Example 153, Furan-2-ylmethyl 2-(4-ethoxyphenyl)thiazole-4-carboxylate], with 5 µM.
`CCOc1ccc(-c2nc(C(=O)OC(C)C)c(OC(C)C)s2)cc1` [Example 177]: the IC50 amounted to 25 µM.

The series is the same for the next values; noted with them: Example 238; read-out: Inhibition of human ATGL IC50.
`C#CCC(C)OC(=O)c1csc(-c2ccc(OCC)cc2)n1` (stereo not shown) [Example 208, Pont-4-yn-2-yl 2-(4-ethoxyphenyl)thiazole-4-carboxylate]: the IC50 amounted to 10 µM.
Same read-out and setting: under `CCOc1ccc(-c2nc(C(=O)OCc3cncs3)cs2)cc1` [Example 217, Thiazol-5-ylmethyl-2-(4-ethoxyphenyl)thiazole-4-carboxylate] stands 20 µM.

System in another series: not given
Assay: not given
Conditions: not given
Consider `CCOc1ccc(-c2cccc(C(=O)OCCCOC)n2)cc1` [Example 3], for which the melting point was in the range of 36 to 38 °C.
The same measure, in the same setting: then `CCOc1ccc(-c2cccc(C(=O)OCC(C)(C)C)n2)cc1` [Example 4], with 89 to 92 °C.
On the same count and under the same terms, under `CCOc1ccc(-c2cccc(C(=O)OCCCO)n2)cc1` [Example 5] stands 61 to 63 °C; under `CCCCCCOC(=O)c1cccc(-c2ccc(OCC)cc2)n1` [Example 7], 48 to 51 °C.
The same measure, in the same setting: then `CCOC(=O)c1cccc(-c2ccc(OCc3ccccc3)cc2)n1` [Example 9], with 143 to 145 °C; and `CC(C)OC(=O)c1cccc(-c2ccc(O)cc2)n1` [Example 10], with 154 to 157 °C; and `CC(C)OC(=O)c1cccc(-c2ccc(N(C)C)cc2)n1` [Example 17], with 134 to 140 °C.
In the case of `CCOc1ccc(-c2cccc(C(=O)OCc3ccccc3)n2)cc1` [Example 22], the melting point is 80 to 81 °C.
`CCOC(=O)c1cccc(-c2ccccc2)n1` [Example 39] registered a melting point of 42 to 46 °C.
Still for that read-out and setting: under `CCOC(=O)c1cccc(-c2ccc(-c3ccncc3)cc2)n1` [Example 50] stands 127 to 131 °C; under `CC(C)OC(=O)c1cccc(-c2ccc(C(C)(C)C)cc2)n1` [Example 60], 104 to 106 °C.
On to `C#C[C@H](C)OC(=O)c1cccc(-c2ccc(CCC)cc2)n1` [Example 72], for which the melting point fell in the range of 112 to 113 °C.
The same measure, in the same setting: then `CCOc1ccc(-c2cccc(C(=O)OCCc3ccccc3)n2)cc1` [Example 74], with 80 to 82 °C.
`COC(=O)c1cccc(-c2ccc(C(F)(F)F)cc2)n1` [Example 78] gave a melting point of 95 to 96 °C.
In turn, `CC(C)OC(=O)c1cccc(C#Cc2ccccc2)n1` [Example 79] came in with a melting point of 85 to 86 °C.
Consider `CCOC(=O)c1cccc(-c2ccc(C(F)(F)F)cc2)n1` [Example 81], for which the melting point was in the range of 110 to 112 °C.
For `C=CCOC(=O)c1cccc(-c2ccc(C(F)(F)F)cc2)n1` [Example 82], the melting point is 79 to 80 °C.
On the same count and under the same terms, under `CCOC(=O)c1csc(-c2ccc(C(F)(F)F)cc2)n1` [Example 183, Ethyl 2-(4-(trifluoromethyl)phenyl)thiazole-4-carboxylate] stands 100 °C.
The same measure, in the same setting: under `CCOC(=O)c1csc(-c2ccc(C)cc2)n1` [Example 184, Ethyl 2-(p-tolyl)thiazole-4-carboxylate] stands 39 to 41 °C; under `CCOC(=O)c1csc(-c2ccc(C(C)(C)C)cc2)n1` [Example 186, Ethyl 2-(4-(tert-butyl)phenyl)thiazole-4-carboxylate], 50 to 52 °C.
The same measure, in the same setting: then `CCOC(=O)c1csc(-c2ccc(O)cc2)n1` [Example 188, Ethyl 2-(4-hydroxyphenyl)thiazole-4-carboxylate], with 171 °C; and `CCOc1ccc(-c2cccc(C(=O)OCCc3ccco3)n2)cc1` [Example 191, 2-(Furan-2-yl)ethyl 6-(4-ethoxyphenyl)picolinate], with 82 to 84 °C; and `CCOc1ccc(-c2cccc(C(=O)OCc3ccccn3)n2)cc1` [Example 192, Pyridin-2-ylmethyl 6-(4-ethoxyphenyl)picolinate], with 124 to 127 °C.
On to `CCOc1ccc(-c2cccc(C(=O)OCc3cccnc3)n2)cc1` [Example 193, Pyridin-3-ylmethyl 6-(4-ethoxyphenyl)picolinate], for which the melting point lay in the range of 107 to 110 °C.
On the same count and under the same terms, under `CCOc1ccc(-c2cccc(C(=O)OCc3ccncc3)n2)cc1` [Example 194, Pyridin-4-ylmethyl 6-(4-ethoxyphenyl)picolinate] stands 101 to 106 °C; under `CCOc1ccc(-c2cccc(C(=O)OCCc3cccs3)n2)cc1` [Example 195, 2-(Thiophen-2-yl)ethyl 6-(4-ethoxyphenyl)picolinate], 73 to 78 °C.
Take `CCOc1ccc(-c2cccc(C(=O)OCCc3ccsc3)n2)cc1` [Example 196, 2-(Thiophen-3-yl)ethyl 6-(4-ethoxyphenyl)picolinate]: the melting point was in the range of 73 to 76 °C.
Still for that read-out and setting: under `CCOc1ccc(-c2cccc(C(=O)OCc3cncs3)n2)cc1` [Example 199, Thiazol-5-ylmethyl 6-(4-ethoxyphenyl)picolinate] stands 75 to 80 °C; under `CCOC(=O)c1ccc(-c2ccc(OCC)cc2)nc1` [NG-408], 106 to 108 °C.
The same measure, in the same setting: under `CCOc1ccc(-c2cccc(C#N)n2)cc1` [NG-437] stands 109 to 111 °C; under `CCOc1ccc(-c2ccc(O)c(C(=O)OC)n2)cc1` [NG-461], 114 to 116 °C.
Turning to `CCOc1ccc(-c2ccc(OC)c(C(=O)OC)n2)cc1` [NG-462], the melting point lay within 114 to 116 °C.
In the case of `CCOc1ccc(-c2ccc(OC(C)=O)c(C(=O)OC)n2)cc1` [NG-477], the melting point lay within 120 to 123 °C.
Same read-out and setting: then `CC(C)OC(=O)c1cccc(-c2ccc(Cl)c(Cl)c2)n1` [NG-481], with 74 to 76 °C.
Still for that read-out and setting: under `CC(C)OC(=O)c1cccc(-c2ccc(C(F)(F)F)cc2F)n1` [NG-587] stands 96 to 97 °C; under `CCOc1ccc(-c2cccc(C(F)(F)F)n2)cc1` [NG-622], 100 to 101 °C.
In the case of `CCOc1ccc(-c2cccc(C(C)=O)n2)cc1` [NG-631], the melting point lay within 80 to 86 °C.
Same read-out and setting: under `CCOC(=O)Cc1cccc(-c2ccc(OCC)cc2)n1` [NG-640] stands 90 to 91 °C.

The target of the next series is T2, murine ATGL (Mus musculus, UniProt Q8BJ56).
T2 construct: made in house; host or cells: Expi cells (lysate)
T2 sequence (Q8BJ56 1-486): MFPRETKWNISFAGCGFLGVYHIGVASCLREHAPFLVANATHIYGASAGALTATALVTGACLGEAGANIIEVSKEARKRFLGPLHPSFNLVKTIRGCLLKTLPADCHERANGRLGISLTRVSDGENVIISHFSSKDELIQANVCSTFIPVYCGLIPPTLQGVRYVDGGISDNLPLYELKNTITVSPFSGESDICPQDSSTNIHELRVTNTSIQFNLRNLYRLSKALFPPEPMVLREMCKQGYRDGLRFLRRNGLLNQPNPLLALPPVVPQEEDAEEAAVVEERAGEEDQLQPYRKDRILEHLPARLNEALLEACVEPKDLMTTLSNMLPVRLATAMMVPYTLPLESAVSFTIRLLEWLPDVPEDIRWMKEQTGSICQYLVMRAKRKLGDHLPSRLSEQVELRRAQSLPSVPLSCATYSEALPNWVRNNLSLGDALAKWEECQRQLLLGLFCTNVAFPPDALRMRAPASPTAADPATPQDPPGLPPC
Put plainly: TG hydrolase activity, Expi lysates expressing mouse ATGL + CGI-58, radiolabelled triolein. Type of series: biochemical. Particulars: 50 μM compound; Example 237; read-out: Inhibition of murine ATGL at 50 μM − mean [%]. Here is the method: as §1
Lysates from Expi cells overexpressing ATGL from mouse (Mus musculus) were incubated with recombinant purified ATGL co-activator CGI-58 and ATGL inhibitors at 50 μM. Subsequently, substrate containing radiolabeled triolein was added and liberated FA were extracted and quantified by liquid scintillation. Inhibitors were dissolved in DMSO which was used as control. Samples were measured in triplicates.
For `C=CCOC(=O)c1csc(-c2ccc(OCC)cc2)n1` [Example 147, Allyl 2-(4-ethoxyphenyl)thiazole-4-carboxylate], the inhibition at 50 µM stood at 30%.
Same read-out and setting: then `CCOc1ccc(-c2nc(C(=O)OC(C)(C)C)cs2)cc1` [Example 150, tert-Butyl 2-(4-ethoxyphenyl)thiazole-4-carboxylate], with 6.3%; and `CCOc1ccc(-c2nc(C(=O)OC3CC3)cs2)cc1` [Example 151, Cyclopropyl 2-(4-ethoxyphenyl)thiazole-4-carboxylate], with 12.1%.
On to `CCOc1ccc(-c2nc(C(=O)OCc3ccco3)cs2)cc1` [Example 153, Furan-2-ylmethyl 2-(4-ethoxyphenyl)thiazole-4-carboxylate], for which the inhibition at 50 µM was found to be 42.2%.
The same measure, in the same setting: then `CCOc1ccc(-c2nc(C(=O)OC(C)C)c(OC(C)C)s2)cc1` [Example 177], with 0%.

The series is the same for the next values; noted with them: 50 μM; Example 238; read-out: % Inhibition of murine ATGL at 50 μM.
Take `C#CCC(C)OC(=O)c1csc(-c2ccc(OCC)cc2)n1` (stereo not shown) [Example 208, Pont-4-yn-2-yl 2-(4-ethoxyphenyl)thiazole-4-carboxylate]: the inhibition at 50 µM is 59%.
Same read-out and setting: under `CCOc1ccc(-c2nc(C(=O)OCc3cncs3)cs2)cc1` [Example 217, Thiazol-5-ylmethyl-2-(4-ethoxyphenyl)thiazole-4-carboxylate] stands 77%.

As usually defined, the IC50 is the concentration that inhibits the measured activity by half. For orientation: melting point means the temperature of the solid-liquid transition. One may read the inhibition as how much of the control response was suppressed.
